Columns and labels:
TRPV1 receptor = target: T1, TRPV1 receptor (Rattus norvegicus, UniProt O35433); assay: Inhibition of the current induced by capsaicin on rat DRGs (whole-cell patch-clamp); format: cell-based; conditions: DRG neuron, inhibition of control capsaicin (1 microM) response, newborn rat DRG neurons; for inhibition at 0.001 µM: compound at 1 nM; for inhibition at 0.01 µM: compound at 10 nM
T1 construct: The neurons of the DRG naturally express the TRPV1 receptor; endogenous in cells; host or cells: primary culture of newborn rat dorsal root ganglion neurons
T1 sequence (O35433 whole entry): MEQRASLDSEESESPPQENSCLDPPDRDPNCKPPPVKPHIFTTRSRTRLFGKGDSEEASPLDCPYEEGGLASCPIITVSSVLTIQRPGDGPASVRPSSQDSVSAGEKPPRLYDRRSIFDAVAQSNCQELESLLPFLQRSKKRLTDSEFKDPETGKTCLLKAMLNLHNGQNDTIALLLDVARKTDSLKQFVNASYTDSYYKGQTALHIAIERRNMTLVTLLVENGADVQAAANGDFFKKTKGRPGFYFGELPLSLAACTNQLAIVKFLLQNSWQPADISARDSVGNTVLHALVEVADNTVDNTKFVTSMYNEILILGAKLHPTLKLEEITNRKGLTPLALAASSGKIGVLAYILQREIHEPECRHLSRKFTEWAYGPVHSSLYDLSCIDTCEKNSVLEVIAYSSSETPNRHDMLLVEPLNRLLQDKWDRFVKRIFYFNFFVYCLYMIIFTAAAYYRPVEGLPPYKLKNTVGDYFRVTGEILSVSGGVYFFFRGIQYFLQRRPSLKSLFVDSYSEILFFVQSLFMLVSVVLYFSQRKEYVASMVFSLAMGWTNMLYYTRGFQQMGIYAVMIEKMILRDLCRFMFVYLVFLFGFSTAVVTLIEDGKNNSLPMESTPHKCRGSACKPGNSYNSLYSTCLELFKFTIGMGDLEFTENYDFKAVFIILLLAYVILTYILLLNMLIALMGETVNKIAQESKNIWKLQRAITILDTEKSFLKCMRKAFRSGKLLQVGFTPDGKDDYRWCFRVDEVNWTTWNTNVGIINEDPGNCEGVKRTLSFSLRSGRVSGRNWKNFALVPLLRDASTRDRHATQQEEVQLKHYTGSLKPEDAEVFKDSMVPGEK
Procedure: Test for Inhibition of the Current Induced by Capsaicin on Rat DRGs
• Primary culture of rat dorsal root ganglion (DRG) cells:
The neurons of the DRG naturally express the TRPV1 receptor.
Newborn rat DRG primary cultures are prepared from one-day-old rat pups. Briefly, after dissection, the ganglia are trypsinized and the cells are mechanically dissociated by controlled trituration. The cells are resuspended in an Eagle's basal culture medium containing 10% of foetal calf serum, 25 mM KCl, 2 mM glutamine, 100 μg/ml gentamycin and 50 ng/ml of NGF, and then deposited onto laminin-coated glass cover slips (0.25×10^6 cells per cover slip) which are then placed in 12-well Corning dishes. The cells are incubated at 37° C. in a humidified atmosphere containing 5% CO2 and 95% air. Cytosine β-D-arabinoside (1 μM) is added 48 h after placing in culture, in order to prevent the development of non-neuronal cells. The cover slips are transferred into the experimental chambers for the patch-clamp studies after 7-10 days of culture. • Electrophysiology:
The measuring chambers (volume 800 μl) containing the cell preparation are placed on the platform of an inverted microscope (Olympus IMT2) equipped with Hoffman optics (Modulation Contrast, New York) and observed at the magnification of ×400. The chambers are continually perfused by gravity (2.5 ml/min) by means of a solution distributing device with 8 inlets, and the sole outlet of which, consisting of a polyethylene tube (500 μm aperture), is placed at least 3 mm from the cell studied. The “whole cell” configuration of the patch-clamp technique was used. The borosilicate glass pipettes (resistance 5-10 MOhms) are moved close to the cell by means of a 3D piezoelectric micromanipulator (Burleigh, PC1000). The overall currents (membrane potential fixed at −60 mV) are recorded with an Axopatch 1D amplifier (Axon Instruments, Foster city, Calif.), connected to a PC control by Pclamp8 software (Axon Instrument). The current traces are recorded on paper and simultaneously digitized (sampling frequency […]) and acquired on the hard drive of the PC.
The application of a micromolar solution of capsaicin causes, on the DRG cells (voltage fixed at −70 mV), an inward cationic current. In order to minimize the desensitization of the receptors, a minimum period of one minute is observed between two applications of capsaicin. After a controlled period (stabilization of the capsaicin response alone), the compounds to be tested are applied alone at a given concentration (concentration of 10 nM or of […]) for a period of 4 to 5 minutes, during which several capsaicin+compound tests are carried out (obtaining of maximum inhibition). The results are expressed as % inhibition of the control capsaicin response.

TRPV1 receptors = target: T2, TRPV1 receptors (Mus musculus, UniProt Q704Y3); assay: Mouse corneal irritation test (capsaicin-induced eye rubbing); format: in vivo; conditions: compound 500 μM, 2 μl local application to cornea 10 min before capsaicin 160 μM; eye rubs counted over 2 min
T2 construct: from tissue; host or cells: cornea of the living mouse (in vivo)
T2 sequence (Q704Y3 whole entry): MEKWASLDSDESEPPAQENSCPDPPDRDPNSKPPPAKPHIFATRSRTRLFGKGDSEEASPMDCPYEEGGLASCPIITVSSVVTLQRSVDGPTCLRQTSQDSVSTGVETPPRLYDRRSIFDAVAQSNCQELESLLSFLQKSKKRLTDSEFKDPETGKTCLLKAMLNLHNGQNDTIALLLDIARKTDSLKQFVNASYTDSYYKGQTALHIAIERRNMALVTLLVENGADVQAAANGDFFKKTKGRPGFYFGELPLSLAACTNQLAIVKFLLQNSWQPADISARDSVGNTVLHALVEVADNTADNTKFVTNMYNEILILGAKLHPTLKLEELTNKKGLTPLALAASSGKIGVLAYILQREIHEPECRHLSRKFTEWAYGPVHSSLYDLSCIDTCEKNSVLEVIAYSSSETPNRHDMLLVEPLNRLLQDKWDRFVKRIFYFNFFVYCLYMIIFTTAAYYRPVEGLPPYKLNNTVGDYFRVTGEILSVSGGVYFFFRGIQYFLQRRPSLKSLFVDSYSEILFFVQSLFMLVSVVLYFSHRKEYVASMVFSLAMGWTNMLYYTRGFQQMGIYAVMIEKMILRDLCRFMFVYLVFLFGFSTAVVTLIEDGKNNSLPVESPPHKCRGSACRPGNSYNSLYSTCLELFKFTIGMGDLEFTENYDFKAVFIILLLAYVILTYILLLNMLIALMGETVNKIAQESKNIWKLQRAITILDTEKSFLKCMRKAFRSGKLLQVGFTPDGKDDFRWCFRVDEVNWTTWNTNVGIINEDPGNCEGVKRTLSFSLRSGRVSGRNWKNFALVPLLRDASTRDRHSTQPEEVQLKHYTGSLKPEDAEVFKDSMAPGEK
Procedure: Mouse Corneal Irritation Test
The irritant nature of capsaicin can be readily assessed at the level of the cornea since this organ is one of the most innervated by C fibres. In this context, according to preliminary experiments, the application of a very small amount of capsaicin (2 μl at a concentration of 160 μM) to the surface of the cornea of an animal results in a certain number of stereotyped behaviors associated with the irritation and that can be readily listed. Among these are: blinking of the eye, rubbing of the instilled eye with the ipsilateral forelimb, rubbing of the face with both forelimbs, scratching of the ipsilateral face with the hind limb. […]
In practice, the product to be tested, prepared at 25 mM in DMSO and diluted for its final use in physiological serum with 10% Tween 80, at the highest concentration of 500 μM, is administered by local application to the surface of the cornea in a volume of 2 μl, 10 minutes before the application of the capsaicin. […] Over the course of a period of observation of 2 minutes following the instillation, the number of times the instilled eye is rubbed by the ipsilateral forelimb is counted for each animal. For each given group, the percentage protection is calculated as follows: P=100−((average number of scratches of the group treated with the compound/average number of scratches of the group treated with the solvent)×100) […]

| inhibition at 0.001 µM (TRPV1 receptor) [%] | melting point [°C] | inhibition at 0.01 µM (TRPV1 receptor) [%] | Compound | % P 500 μM (percentage protection) (TRPV1 receptors) [%] |
| --- | --- | --- | --- | --- |
| 46 | 199 to 201 | – | O=C(Nc1ccc(N2CCCC2)nc1)c1cc2cc(F)ccc2n1Cc1cccc(F)c1 [Compound 2, N-[6-(pyrrolidin-1-yl)pyridin-3-yl]-5-fluoro-1-(3-fluorobenzyl)-1H-indole-2-carboxamide] | 72 |
| 89 | – | – | O=C(Nc1ccc(N2CCC2)nc1)c1cc2cc(F)ccc2n1Cc1cccc(F)c1 [Compound 4, N-[6-(azetidin-1-yl)pyridin-3-yl]-5-fluoro-1-(3-fluorobenzyl)-1H-indole-2-carboxamide] | – |
| – | – | 85 | O=C(Nc1ccc(N2CCC(O)C2)nc1)c1cc2cc(F)ccc2n1Cc1cccc(F)c1 (stereo not shown) [Compound 7, N-[6-(3-hydroxypyrrolidin-1-yl)pyridin-3-yl]-5-fluoro-1-(3-fluorobenzyl)-1H-indole-2-carboxamide] | – |
| – | 220 to 222 | 79 | O=C(Nc1cnc(N2CCCC2)nc1)c1cc2cc(F)ccc2n1Cc1cccc(F)c1 [Compound 21, N-[2-(pyrrolidin-1-yl)pyrimidin-5-yl]-5-fluoro-1-(3-fluorobenzyl)-1H-indole-2-carboxamide] | – |

Reference: patent publication US8586573B2, “N-(Aminoheteroaryl)-1H-indole-2-carboxamide derivatives, and preparation and therapeutic application thereof” (Sanofi, priority 2006, dated 2013)
